Values quoted from earlier work, collected in patent US5270047A, “Local delivery of dipyridamole for the treatment of proliferative diseases” (priority 1991, dated 1993).

Tested on: vascular restenosis
Details: current pharmacologic therapies after PTCA, atherectomy, laser angioplasty, bypass graft surgery; cited from earlier work

For `CC(=O)Oc1ccccc1C(=O)O` [aspirin], the “effect for the treatment and prevention of vascular restenosis” value (“effect for the treatment and prevention” for short) is listed as “ineffective for the treatment and prevention of vascular restenosis”.

For `O=c1ccc2ccccc2o1` [coumarin], the “effect for the treatment and prevention” value is listed as “ineffective for the treatment and prevention of vascular restenosis”.

In the case of `CCCCC[C@H](O)/C=C/[C@@H]1[C@H]2C/C(=C/CCCC(=O)O)O[C@H]2C[C@H]1O` [prostacyclin], the “effect for the treatment and prevention” value is given as “ineffective for the treatment and prevention of vascular restenosis”.

For heparin, the “effect for the treatment and prevention” value is listed as “ineffective for the treatment and prevention of vascular restenosis”.

In the case of low molecular weight heparin, the “effect for the treatment and prevention” value is listed as “ineffective for the treatment and prevention of vascular restenosis”.
